Reference: patent US20180362485A1, “N-HYDROXYFORMAMIDE COMPOUNDS AND COMPOSITIONS COMPRISING THEM FOR USE AS BMP l, TLL1 AND/OR TLL2 INHIBITORS” (GlaxoSmithKline Intellectual Property (No. 2) Limited, priority 2015, published 2018)

Target: T1, human TLL1 (Homo sapiens, UniProt O43897, I156V/N221S/V284A)
T1 construct: a natural variant of full length native human TLL1 (NM_012464.4); made in house
T1 sequence (O43897 148-1013 I156V/N221S/V284A): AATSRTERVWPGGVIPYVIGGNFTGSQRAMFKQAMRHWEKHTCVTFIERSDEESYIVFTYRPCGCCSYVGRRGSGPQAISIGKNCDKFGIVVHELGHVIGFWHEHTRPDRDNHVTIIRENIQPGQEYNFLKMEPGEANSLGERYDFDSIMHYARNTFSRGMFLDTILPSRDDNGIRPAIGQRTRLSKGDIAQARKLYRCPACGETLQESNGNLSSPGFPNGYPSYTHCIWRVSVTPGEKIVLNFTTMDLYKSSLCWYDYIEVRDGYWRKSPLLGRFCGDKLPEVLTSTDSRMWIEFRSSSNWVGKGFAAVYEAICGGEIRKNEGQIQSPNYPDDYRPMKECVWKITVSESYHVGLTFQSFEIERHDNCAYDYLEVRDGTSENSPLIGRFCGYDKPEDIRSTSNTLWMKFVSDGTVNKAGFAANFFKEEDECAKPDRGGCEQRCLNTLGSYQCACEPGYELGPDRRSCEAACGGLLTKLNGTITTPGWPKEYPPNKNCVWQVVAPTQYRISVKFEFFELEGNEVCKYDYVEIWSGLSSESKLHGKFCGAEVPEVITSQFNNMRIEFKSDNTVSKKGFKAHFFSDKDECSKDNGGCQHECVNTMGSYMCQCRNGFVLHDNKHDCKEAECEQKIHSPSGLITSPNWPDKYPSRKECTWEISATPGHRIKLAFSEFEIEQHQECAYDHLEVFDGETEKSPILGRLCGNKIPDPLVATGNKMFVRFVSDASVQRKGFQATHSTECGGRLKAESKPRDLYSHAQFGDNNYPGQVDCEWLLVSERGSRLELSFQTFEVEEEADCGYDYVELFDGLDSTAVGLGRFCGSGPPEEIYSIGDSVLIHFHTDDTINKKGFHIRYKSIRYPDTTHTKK
Test: Enzyme inhibition assay for human TLL1
Assay type: biochemical
Conditions: 2 nM TLL1, 0.8 μM promyostatin peptide substrate; read-out: pIC50, TLL1 enzyme inhibition assay (converted)
Excerpt: Buffer components are purchased from Sigma-Aldrich (St. Louis, Mo.) or an equivalent supplier. The promyostatin peptide substrate is custom synthesized by American Peptide Company (Sunnyvale, Calif.) using the myostatin protein sequence (Uniprot accession number 014793) surrounding the cleavage site reviewed in Hopkins, D. R., et al., 2007 Matrix Biology, 26, 508-523. The procollagen peptide substrate used in the high enzyme BMP1 cleavage assay is custom synthesized by 21st Century Biochemicals (Marlboro, Mass.) using the procollagen Iα protein sequence (Uniprot accession number P02452) surrounding the cleavage site reviewed in Hopkins, D. R., et al., 2007 Matrix Biology, 26, 508-523.
The DNA sequence encoding a natural variant of full length native human TLL1 (NM_012464.4) containing three amino acid substitutions I156V, N221S, V284A is amplified from human heart and brain cDNA and subcloned into the pCDN expression vector. The plasmid is electroporated into CHOE1A cells. […]
Inhibition of human TLL1 and TLL2 recombinant enzymes is measured in 10 ul endpoint assays in 384-well format using the same promyostatin peptide substrate employed in the above Enzyme Inhibition Assay for human BMP1. […] TLL1 and TLL2 reactions are quenched with 5 μl of 0.5 M EDTA and plates are read on a ViewLux (Perkin Elmer) multilabel plate reader using a 480 nm excitation filter and 540 nm emission filter. […]

## CCCCC[C@@H](C(=O)NCNC(=O)c1ccc(-c2ccc(C(=O)O)cc2)o1)[C@@H](CC)N(O)C=O [WO2015/104684 Example 71, 4-(5-((((R)-2-((R)-1-(N-hydroxyformamido)propyl)heptanamido)methyl)carbamoyl)furan-2-yl)benzoic acid]
  IC50: < 398 nM
